Reference: US8987320B2, “Solid salt forms of a pyrrole substituted 2-indolinone” (Zoetis LLC, priority 2005, dated 2015)
≈ marks a conversion by molar mass, not a printed value. One block for each compound: values may come before it.

Tests used:
[1] = Dynamic moisture sorption gravimetry (DMSG) of salts of Compound I; type: physicochemical
Protocol: Dynamic Moisture Sorption Gravimetry (DMSG).
DMSG isotherm was collected on a temperature controlled atmospheric microbalance. Approximately 10 mg samples were placed in the sample pan of the balance. The humidity was sequentially varied from room relative humidity (RH) to 0% RH and was then increased to 90% RH followed by a decrease of RH to 0% again in 3% RH steps. The mass was then measured every two minutes. The RH was stepped to the next target value when change of the sample mass was less than 0.5 μg in 10 min. The Visual Basic program dmsgscn2.exe was used to control the data collection and export the information to an Excel spreadsheet.

[2] = Estimation of solubility in various solvents by step-wise solvent addition; type: physicochemical; settings: 23 °C, organic solvent or mixture, thermodynamic from solid, 23° C., read-out: Estimated solubility
Protocol: Samples of 1-2 mg of Compound I phosphate (lot 35282-CS-51) were transferred to 10 mL glass vials (tared) and were weighed (accurate to 0.1 mg). Solvents were added to the vials (one solvent to each vial) in a step-wise fashion, with 0.5 mL of solvent added at each step. Solvents used were buffer (pH=2), buffer (pH=5), water, methanol, tetrahydrofuran (THF), acetonitrile, and acetone. After each addition, the vial was capped and shaken. The dissolution of solid was visually observed. If no obvious dissolution was observed, more solvent was added immediately. If dissolution was apparent, the vial was left on the bench for at least 30 minutes before the next addition of solvent. This step was repeated until no crystals were visible against a black and a white background. The solubility was then bracketed by dividing the weight of the compound by the final volume and the volume before the last addition. If a solid remained after the addition of 10 mL of solvent, the solubility was expressed as less than the weight divided by the final volume. If the solid was completely dissolved after the first addition of solvent, the solubility was expressed as greater than the weight divided by the solvent volume. All experiments were conducted at room temperature.

[3] = Solubility of Compound I in pH 6 phosphate buffer; type: physicochemical; settings: aqueous buffer; pH 6 phosphate buffer at 25° C.
Protocol: Compound I readily crystallizes. Its solubility is about 10 μg/mL in pH 6 phosphate buffer at 25° C. When the compound was synthesized, very fine particles precipitated out of solution during the last step of synthesis. Subsequent isolation of these fine particles by filtration was slow, and a hard cake resulted after filtration. There is a need for a salt of Compound I which has physical stability and desirable physical properties.

[4] = set-up: species or system rodent; settings: in vivo
Protocol: Based on preclinical work in rodent models, the therapeutic range of Compound I for target inhibition was considered to be 50-100 ng/ml for 12 h of a 24-h dosing period. […] In one animal, the plasma concentration of Compound I phosphate was outside the range of the other samples (0.3 ng/ml).

canine MCTs = settings: dog, in vivo; cited from earlier work
KIT = settings: in vitro, cited from earlier work
[5] = Relative physical stability of Compound I phosphate polymorphs standing in solvent; type: physicochemical; settings: among non-solvated polymorphs, in contact with solvent
Protocol: Such concentrated solutions were prepared by dissolving Compound I free base in about 1 M phosphoric acid. For example, about 70 mg of Compound I free base could be dissolved in 1 mL of 1 M phosphoric acid. However, the amount of Compound I free base and phosphoric acid used depended on the desired concentration and batch size of the solution. In the example in which the precipitate was vacuum filtered immediately after precipitation, about 1 mL of the desired solution was then dripped into about 10 mL of ten anti-solvents to precipitate the salt crystals out. These solvents were water plus acetonitrile (ANC), ethanol, methanol, acetone, acetonitrile, THF, ethyl acetate, hexane, methylene chloride (CH2Cl2), and isopropyl alcohol (IPA). In the example in which the precipitate was vacuum filtered after standing overnight or for three days, the additional solvents of methyl ethyl ketone (MEK) and dioxane were used. Some organic solvents, e.g., ethyl acetate, hexane, CH2C12, are not miscible with water and two layers of solvents were observed. […] In those cases, about 1 mL of methanol was added as a bridging solvent, to increase the miscibility between the two layers. Methanol appeared to work well to increase the miscibility because colorless organic layer became yellow as soon as methanol was added. […] The powder was then analyzed. […]

- % water at 80% RH [1]: ~3.8%
- water at 80 percent humidity ([1]; 80 percent relative humidity): about 3.8%
SMILES: Cc1[nH]c(/C=C2\C(=O)Nc3ccc(F)cc32)c(C)c1C(=O)NCCN1CCCC1.O=C(O)CC(O)(CC(=O)O)C(=O)O [Compound I citrate]

- solubility ([2]; acetone, Acetone): < 160 µg/mL
- solubility ([2]; acetonitrile, Acetonitrile): < 80 µg/mL
- solubility ([2]; methanol, methanol): 210 to 310 µg/mL (≈ 530 to 782 µM)
- solubility ([2]; tetrahydrofuran (THF), THF): 320 to 400 µg/mL (≈ 807 to 1010 µM)
SMILES: Cc1[nH]c(/C=C2\C(=O)Nc3ccc(F)cc32)c(C)c1C(=O)NCCN1CCCC1 [Compound I free base (polymorph Form A), 5-[5-fluoro-2-oxo-1,2-dihydro-indol-(3Z)-ylidenemethyl]-2,4-dimethyl-1H-pyrrole-3-carboxylic acid (2-pyrrolidin-1-yl-ethyl)-amide]

- solubility [3]: ~10 µg/mL (≈ 25.2 µM)
- % water at 80% RH [1]: ~1%
- therapeutic range for target inhibition (plasma) [4]: 50 to 100 ng/mL
SMILES: Cc1[nH]c(/C=C2\C(=O)Nc3ccc(F)cc32)c(C)c1C(=O)NCCN1CCCC1 [Compound I, 5-[5-fluoro-2-oxo-1,2-dihydro-indol-(3Z)-ylidenemethyl]-2,4-dimethyl-1H-pyrrole-3-carboxylic acid (2-pyrrolidin-1-yl-ethyl)-amide]
- canine MCTs with durable objective responses (partial and complete responses) (canine MCTs): 11 of 22 canine MCTs
- potency of blocking phosphorylation of wild-type vs ITD mutant KIT (KIT; cellular assays): comparable potency
- effect on malignant mast cell lines expressing various forms of mutant KIT (KIT): inhibit KIT phosphorylation, arrest cell proliferation, and induce cell cycle arrest and apoptosis

- relative stability of the solid phase [5]: most stable solid phase
SMILES: Cc1[nH]c(/C=C2\C(=O)Nc3ccc(F)cc32)c(C)c1C(=O)NCCN1CCCC1 [Form I]
